Assay [1] relates to L6-myotubes. Briefly: Measurement of intracellular cAMP levels in differentiated L6-myotubes (Biological Example 3). The format is cell-based. The conditions noted are these: for Emax at 10 µM: 0.25 h, intracellular cAMP in differentiated L6-myotubes, compound at 10 μM, activity relative to isoproterenol at 10 μM; for intracellular cAMP levels: L6-myotubes, 15 min stimulation, compared with isoprenaline, FIGS. 2a-2d. The procedure, abridged:
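Intracellular cAMP quantified by AlphaScreen after ethanol extraction and lysis of L6 myotubes. Cells were serum-starved overnight, then exposed for 15 min to compound (final 1×10^−5 M) or isoprenaline in IBMX-containing (1 mM) HBSS buffer, pH 7.4.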

In assay [2] the test system is L6-myotubes. Briefly: Glucose uptake in differentiated L6-myotubes (Biological Example 2). The format is cell-based. Particulars: for Emax at 10 µM: glucose uptake in differentiated L6-myotubes, compound at 10 μM, activity relative to isoproterenol at 10 μM, read-out: Biological example 2 (GU); for glucose uptake: L6-myotubes, FIGS. 2a-2d. The procedure, abridged:
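Uptake was quantified as radioactivity in 0.2 M NaOH lysates after a 10 min pulse of 50 nM ^3H-2-deoxyglucose. The pulse followed two agonist exposures at 1×10^−5 M final (isoprenaline or test compound): 1 h 40 min, then 20 min in glucose-free medium after washing. L6 myotubes had been starved overnight in medium with 0.5% fatty-acid-free BSA.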

Assay [3] deals with T1, β2-adrenergic receptor (Rattus norvegicus, UniProt P10608).
T1 construct: endogenous in cells; host or cells: L6 myoblasts differentiated into myotubes
Briefly: Glucose uptake in the presence of the selective β2-adrenergic receptor antagonist ICI-118551 (Biological Example 1). The format is cell-based. The conditions noted are these: L6-myotubes; test compound 1×10^−5 M; different concentrations of ICI-118551; FIGS. 1a-1c. As for the experimental part: L6-myoblasts were grown in Dulbecco's Modified Eagle's Medium (DMEM) containing 1 g/L glucose supplemented with 10% fetal bovine serum (FBS), 2 mM L-glutamine, 50 U/mL penicillin, 50 μg/mL streptomycin and 10 mM HEPES. Cells were plated at 1×10^5 cells per mL in 24-well plates. After reaching 90% confluence the cells were grown in medium containing 2% FBS for 7 days where upon cells differentiated into myotubes. The differentiated L6-myotubes were serum-starved overnight in medium containing 0.5% fatty-acid free BSA and stimulated with the test compound at a final concentration of 1×10^−5 M in the presence of different concentrations of the selective β2-adrenergic receptor antagonist ICI-118551. After 1 h 40 min the cells were washed with warm, glucose free medium twice and another portion of agonist was added to the glucose free medium. After another 20 min of incubation the cells were exposed to 50 nM ^3H-2-deoxyglucose for 10 min before washed in ice cold glucose free medium three times and lysed in 400 μL/well 0.2 M NaOH for 1 h at 60° C. The cell lysate was mixed with 4 ml scintillation buffer (Emulsifier Safe, Perkin Elmer) and the radioactivity was detected in a β-counter (Tri-Carb 4810TR, Perkin Elmer).

In assay [4] the target is T2, β2-adrenergic receptor (Homo sapiens, UniProt P07550).
T2 construct: expressed in transfected cells; host or cells: HEK293
Briefly: β-arrestin 2 recruitment, Large BiT/Small BiT luciferase complementation in HEK293 cells (Biological Example 4). The conditions noted are these: luminescence after 31 min, compared with isoprenaline, FIGS. 3a-3c. The assay is classed as cell-based. As for the experimental part:
HEK293 cells are transfected with both the β2-adrenergic receptor attached with a Large BiT SNAP-tag protein, and with p-arrestin 2 attached to a Small BiT SNAP-tag protein. When cells are stimulated and the receptor recruits β-arrestin 2, the Small- and Large-BiT proteins merge, forming a functional luciferase enzyme, that in presence of furimazine generates light. After 31 min, the light is measured with a luminescence plate reader.

The test system of the next assay is C57Bl/6 mice. In words: Body weight and lean mass in mice treated with dexamethasone (Biological Example 5). The format is in vivo. The conditions noted are these: male C57Bl/6 mice, daily s.c. for 3 weeks, dexamethasone sodium phosphate 10 mg/kg, Compound A 47.1 μmol/kg. As for the experimental part:
40 eight-week-old male C57Bl/6 mice kept on standard chow diet were grouped-caged (2-3 mice per cage) at 21° C. The mice had similar body weight and body composition and were divided into four groups (n=10) and were treated daily with subcutaneous injections for 3 weeks with either dexamethasone sodium phosphate (10 mg/kg) or Compound A (47.1 μmol/kg (corresponding to dose 10 mg/kg of the free base)), or a combination of dexamethasone and Compound A. Control mice received saline. Body weight and lean mass were measured after 6, 12 and 20 days of treatment.

The test system of a further assay is C57Bl/6N mice. Briefly: Combination of Compound C and liraglutide in mice on high-fat, high-sucrose diet (Biological Example 8). The format is in vivo. Particulars: diet-induced obese mice; daily s.c. for 2 weeks; liraglutide 0.1 mg/kg, Compound C 5 mg/kg; FIG. 12b. As for the experimental part:
2.5 Months old male C57Bl/6N mice were grouped caged (4-5 mice per cage), kept at 30° C. and fed with high-fat, high-sucrose diet (45% fat) for 5 months. The mice were divided into four groups (2-3 mice per cage) according to their fasting blood glucose levels, glucose tolerance, body weight, body fat and lean mass, and treated daily for 2 weeks, subcutaneously with either vehicle, liraglutide (0.1 mg/kg), Compound C (5 mg/kg), or a mixture of liraglutide (0.1 mg/kg) and Compound C (5 mg/kg). Food intake and body weight were measured every other day; body fat and lean mass were measured weekly.

The values below come from patent US20260216294A1, “BETA 2-ADRENERGIC RECEPTOR AGONISTS FOR TREATMENT OR PREVENTION OF MUSCLE WASTING” (ATROGI AB, priority 2023, published 2026).

T2 sequence (P07550 whole entry, species assumed): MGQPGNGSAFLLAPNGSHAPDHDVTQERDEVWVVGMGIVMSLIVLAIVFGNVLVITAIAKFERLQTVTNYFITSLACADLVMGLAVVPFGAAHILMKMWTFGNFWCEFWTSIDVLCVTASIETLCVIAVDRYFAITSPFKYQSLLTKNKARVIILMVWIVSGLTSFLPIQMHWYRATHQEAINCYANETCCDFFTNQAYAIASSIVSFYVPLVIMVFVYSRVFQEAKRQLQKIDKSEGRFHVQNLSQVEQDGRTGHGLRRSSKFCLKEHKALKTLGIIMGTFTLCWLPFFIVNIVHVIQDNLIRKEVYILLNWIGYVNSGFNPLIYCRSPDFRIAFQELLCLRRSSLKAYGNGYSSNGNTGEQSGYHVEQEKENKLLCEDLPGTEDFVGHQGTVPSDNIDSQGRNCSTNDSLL
T1 sequence (P10608 whole entry): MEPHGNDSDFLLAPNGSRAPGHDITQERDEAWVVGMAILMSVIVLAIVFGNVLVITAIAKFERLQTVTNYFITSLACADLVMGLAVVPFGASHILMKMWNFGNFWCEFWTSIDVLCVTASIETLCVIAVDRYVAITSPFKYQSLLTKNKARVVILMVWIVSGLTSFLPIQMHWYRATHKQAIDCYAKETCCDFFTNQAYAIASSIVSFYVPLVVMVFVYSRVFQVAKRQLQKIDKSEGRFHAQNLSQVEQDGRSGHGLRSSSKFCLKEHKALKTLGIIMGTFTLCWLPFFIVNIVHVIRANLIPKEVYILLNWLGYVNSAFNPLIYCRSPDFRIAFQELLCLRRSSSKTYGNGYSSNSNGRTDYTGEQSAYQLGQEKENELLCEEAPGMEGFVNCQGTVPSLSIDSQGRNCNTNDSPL

Turning to `COc1ccc(CCC23CCC([C@@H](O)c4cncc(F)c4)(CC2)N3)cc1` [Compound 541, (S)-(5-fluoro-3-pyridyl){4-[2-(p-methoxyphenyl)ethyl]-7-azabicyclo[[2.2.1]]hept-1-yl}methanol], the Emax at 10 µM in the assay on L6-myotubes [1] and in the assay with L6-myotubes [2] was less than 25% throughout.
Consider `COc1ccc(CCC23CCC([C@H](O)c4cncc(F)c4)(CC2)N3)cc1` [Compound 542, (R)-(5-fluoro-3-pyridyl){4-[2-(p-methoxyphenyl)ethyl]-7-azabicyclo[[2.2.1]]hept-1-yl}methanol], for which the Emax at 10 µM with L6-myotubes [1] fell in the range of 25 to 50%; in the assay on L6-myotubes [2] it was 50 to 75%.
The matching figures for `O[C@@H](c1cncc(F)c1)C12CCC(CCc3ccc(OC(F)(F)F)cc3)(CC1)N2` [Compound 543, (S)-(5-fluoro-3-pyridyl){4-[2-(p-trifluoromethoxyphenyl)ethyl]-7-azabicyclo[[2.2.1]]hept-1-yl}methanol]: less than 25% and less than 25%.
With `O[C@@H](c1cccc(F)c1)C12CCC(CCc3ccc(OC(F)(F)F)cc3)(CC1)N2` [Compound 544, (S)-(m-fluorophenyl){4-[2-(p-trifluoromethoxyphenyl)ethyl]-7-azabicyclo[[2.2.1]]hept-1-yl}methanol], the Emax at 10 µM in the assay with L6-myotubes [1] and in the assay with L6-myotubes [2] was less than 25% each time.
Take `O[C@H](c1cncc(F)c1)C12CCC(CCc3ccc(OC(F)(F)F)cc3)(CC1)N2` [Compound 545, (R)-(5-fluoro-3-pyridyl){4-[2-(p-trifluoromethoxyphenyl)ethyl]-7-azabicyclo[[2.2.1]]hept-1-yl}methanol]: the Emax at 10 µM in the assay on L6-myotubes [1] and with L6-myotubes [2] was less than 25% each time.
For the compound `O[C@H](c1cccc(F)c1)C12CCC(CCc3ccc(OC(F)(F)F)cc3)(CC1)N2` [Compound 546, (R)-(m-fluorophenyl){4-[2-(p-trifluoromethoxyphenyl)ethyl]-7-azabicyclo[[2.2.1]]hept-1-yl}methanol], the Emax at 10 µM in the assay on L6-myotubes [1] and with L6-myotubes [2] was less than 25% throughout.
`CC(C)(C)NC[C@H](O)c1cccc(F)c1.Cl` [Compound A, (R)-2-(tert-Butylamino)-1-(3-fluorophenyl)ethan-1-ol hydrochloride]: at β2-adrenergic receptor [3], the “glucose uptake promoted by the compound in the presence of ICI-118551” value (from here on “glucose uptake promoted by the compound”) was “inhibited in a dose-dependent manner”. Also, in the assay with L6-myotubes [1], the “intracellular cAMP levels” value is on record as “low intracellular cAMP levels”. Further, the “β-arrestin 2 recruitment” value at β2-adrenergic receptor [4] was “minimal p-arrestin 2 recruitment”. The glucose uptake result with L6-myotubes [2] was “full glucose uptake response”. In the assay on C57Bl/6 mice (FIG. 4), the body weight result is recorded as “effect is reversed”. Further, in the assay with C57Bl/6 mice (FIG. 5), the lean mass entry is “effect is reversed”.
With `CC(C)(C)NC[C@H](O)c1cncc(F)c1.O=C(O)C(O)C(O)C(=O)O` [Compound B, (R)-2-(tert-Butylamino)-1-(5-fluoropyridin-3-yl)ethan-1-ol hemi-tartrate], the “glucose uptake promoted by the compound” value on β2-adrenergic receptor [3] is given as “inhibited in a dose-dependent manner”. Also, the “intracellular cAMP levels” value with L6-myotubes [1] is on record as “low intracellular cAMP levels”. At β2-adrenergic receptor [4], the “β-arrestin 2 recruitment” value is on record as “minimal p-arrestin 2 recruitment”. Further, in the assay on L6-myotubes [2], the glucose uptake entry is recorded as “full glucose uptake response”.
For `CC(C)(C)NC[C@H](O)c1ccc(F)c(N)c1F.O=C(O)/C=C\C(=O)O` [Compound C, (R)-1-(3-Amino-2,4-difluorophenyl)-2-(tert-butylamino)ethan-1-ol maleate], the “glucose uptake promoted by the compound” value at β2-adrenergic receptor [3] was “inhibited in a dose-dependent manner”. Also, in the assay on L6-myotubes [1], the “intracellular cAMP levels” value is recorded as “low intracellular cAMP levels”. Besides, the “β-arrestin 2 recruitment” value on β2-adrenergic receptor [4] is “minimal p-arrestin 2 recruitment”. Moreover, the glucose uptake result with L6-myotubes [2] is “full glucose uptake response”. The “change in lean mass” value in the assay with C57Bl/6N mice was “significantly lower as compared to administration of liraglutide alone”.
